Calls of active or inactive are those of the source.
What was measured:
[1] = Luminescence Cell-Based Dose Retest to Confirm Inhibitors of Cancer Stem Cells. [Related pubchem assays (depositor defined):AID2717, AID2721]; type: functional; details: Homo sapiens
INS1 = experiment: INS-1E survival protection against cytokine death – cell-based, luminescence, retest, dose response (AID 449756); type: functional; details: Rattus norvegicus;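 note: cell death triggered by IL-1 beta plus TNF-alpha plus IFN-gamma mixture; protective hits raise ATP signal compared with cytokine alone wells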
Melanocortin receptor 4 = Melanocortin receptor 4 (Homo sapiens, UniProt P32245); experiment: inhibitors of MC4R cAMP signaling – cell-based, TR-FRET, biased antagonists, dose response (AID 602298); type: functional;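 note: antagonist potency against agonist-stimulated cAMP production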
[2] = cAMP pathway inhibition in counterscreen cell line – TR-FRET cAMP detection, counter-screen for MC4R biased antagonist project, dose response (AID 602305); type: functional, cell-based;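 note: U2OS cells stimulated with forskolin near its EC80 as the cAMP inducer; potency is for inhibition of forskolin-stimulated cAMP signaling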
Paired box protein Pax-8 = Paired box protein Pax-8 (Homo sapiens, UniProt Q06710); experiment: PAX8 transcriptional activity inhibition in RMG-I – RMG-I cells, luciferase, cherry-pick, dose response (AID 687027); type: functional, cell-based;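 note: luciferase reporter driven by Pax8 target thyroperoxidase promoter measured by SteadyGlo luminescence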
[3] = general cell-killing toxicity readout – plate reader, dry powder samples, cytotoxicity control for PAX8 inhibitor project, dose response (AID 743021); type: functional, cell-based
BJ [4] = experiment: BJ-TERT fibroblast viability loss – cell-based, RAS-independent, luminescence, dose response (AID 1933); type: functional; details: Homo sapiens
cells [5] = type: functional, cell-based
BJ [6] = experiment: cells; type: functional, cell-based; details: Homo sapiens
cells [7] = type: functional, cell-based; remark: listed apart in the source
[8] = DRD fibroblast viability loss – cell-based, non-viral oncogenic, luminescence, dose response (AID 1934); type: functional; details: Homo sapiens
HEK293 = experiment: EBV LMP1 TES2 canonical NF-kB signalling blockers – cell-based, HEK293, luciferase, cherry-pick, dose response (AID 588343); type: functional; details: Homo sapiens
[9] = molecular target: T1, Latent membrane protein 1 (Human herpesvirus 4 (strain B95-8), UniProt P03230); experiment: LMP1 TES1 pathway selectivity over dsRED control – imaging, HEK293T, dual-color eGFP/dsRED, cherry-picks, selectivity assay for LMP1 NF-kB inhibitor project, dose response (AID 588398); type: functional, cell-based
T1 sequence (P03230 whole entry): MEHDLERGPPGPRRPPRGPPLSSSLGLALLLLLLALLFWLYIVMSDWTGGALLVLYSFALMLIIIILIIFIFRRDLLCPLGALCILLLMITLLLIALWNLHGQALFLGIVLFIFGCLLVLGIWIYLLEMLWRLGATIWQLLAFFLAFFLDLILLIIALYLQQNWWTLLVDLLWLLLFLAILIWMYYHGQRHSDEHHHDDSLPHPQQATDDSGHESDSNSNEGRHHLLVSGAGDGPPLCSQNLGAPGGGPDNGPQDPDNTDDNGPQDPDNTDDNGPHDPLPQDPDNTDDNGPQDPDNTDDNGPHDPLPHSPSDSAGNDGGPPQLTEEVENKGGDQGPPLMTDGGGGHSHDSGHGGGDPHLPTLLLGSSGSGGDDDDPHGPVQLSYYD

BJ [10] = experiment: BJ-TERT-LT-ST fibroblast viability loss – cell-based, RAS-independent, luminescence, dose response (AID 1935); type: functional; details: Homo sapiens;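 note: BJ fibroblasts immortalized with TERT plus LT and ST oncogenes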
[11] = molecular target: T2, Replicative DNA helicase DnaB (Mycobacterium tuberculosis, UniProt P9WMR3); experiment: DnaB intein splicing inhibitors, dose response, biochemical, cell-free fluorescence (AID 449749); type: functional
T2 sequence (P9WMR3 whole entry): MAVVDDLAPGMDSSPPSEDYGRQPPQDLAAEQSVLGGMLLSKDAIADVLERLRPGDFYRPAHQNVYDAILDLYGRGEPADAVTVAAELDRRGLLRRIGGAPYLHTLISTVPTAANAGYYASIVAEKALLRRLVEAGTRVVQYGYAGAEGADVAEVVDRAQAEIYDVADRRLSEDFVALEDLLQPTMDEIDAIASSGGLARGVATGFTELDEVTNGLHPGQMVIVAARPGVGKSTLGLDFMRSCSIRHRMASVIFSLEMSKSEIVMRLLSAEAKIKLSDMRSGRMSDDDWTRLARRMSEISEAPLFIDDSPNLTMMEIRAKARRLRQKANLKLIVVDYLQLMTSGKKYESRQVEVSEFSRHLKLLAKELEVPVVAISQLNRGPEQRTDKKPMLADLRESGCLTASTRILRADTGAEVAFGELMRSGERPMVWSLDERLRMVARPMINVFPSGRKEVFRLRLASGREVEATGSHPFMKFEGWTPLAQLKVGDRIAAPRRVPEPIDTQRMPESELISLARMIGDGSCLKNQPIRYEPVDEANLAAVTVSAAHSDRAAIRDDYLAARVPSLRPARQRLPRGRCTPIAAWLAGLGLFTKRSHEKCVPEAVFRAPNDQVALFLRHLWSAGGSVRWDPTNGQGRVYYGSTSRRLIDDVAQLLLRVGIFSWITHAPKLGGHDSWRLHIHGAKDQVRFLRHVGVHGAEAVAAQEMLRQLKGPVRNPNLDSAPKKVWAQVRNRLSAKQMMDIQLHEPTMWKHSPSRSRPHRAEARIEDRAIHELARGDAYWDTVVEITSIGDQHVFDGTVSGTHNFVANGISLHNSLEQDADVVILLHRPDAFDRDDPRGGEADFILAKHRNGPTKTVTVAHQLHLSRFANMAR

[12] = molecular target: Heat shock protein HSP 90-alpha (Homo sapiens, UniProt P07900); type: functional, organism-based
BJ [13] = experiment: growth inhibition of engineered Ras-driven BJ cells – cell-based, alamar blue fluorescence, cherrypicked samples, dose response (AID 2631); type: functional; details: Homo sapiens;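 note: confirmatory dose-response assay in RAS-dependent BJ fibroblasts engineered with TERT, LT and ST, with cytotoxicity read by fluorescence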
Protein RecA = molecular target: T3, Protein RecA (Mycobacterium tuberculosis, UniProt P9WHJ3); experiment: Fluorescence Cell-Free Homogeneous Dose Retest to Identify Inhibitors of RecA-Intein Splicing Activity. [Related pubchem assays (depositor defined):AID2097, AID2223, AID489010, AID492950]; type: functional
T3 sequence (P9WHJ3 whole entry): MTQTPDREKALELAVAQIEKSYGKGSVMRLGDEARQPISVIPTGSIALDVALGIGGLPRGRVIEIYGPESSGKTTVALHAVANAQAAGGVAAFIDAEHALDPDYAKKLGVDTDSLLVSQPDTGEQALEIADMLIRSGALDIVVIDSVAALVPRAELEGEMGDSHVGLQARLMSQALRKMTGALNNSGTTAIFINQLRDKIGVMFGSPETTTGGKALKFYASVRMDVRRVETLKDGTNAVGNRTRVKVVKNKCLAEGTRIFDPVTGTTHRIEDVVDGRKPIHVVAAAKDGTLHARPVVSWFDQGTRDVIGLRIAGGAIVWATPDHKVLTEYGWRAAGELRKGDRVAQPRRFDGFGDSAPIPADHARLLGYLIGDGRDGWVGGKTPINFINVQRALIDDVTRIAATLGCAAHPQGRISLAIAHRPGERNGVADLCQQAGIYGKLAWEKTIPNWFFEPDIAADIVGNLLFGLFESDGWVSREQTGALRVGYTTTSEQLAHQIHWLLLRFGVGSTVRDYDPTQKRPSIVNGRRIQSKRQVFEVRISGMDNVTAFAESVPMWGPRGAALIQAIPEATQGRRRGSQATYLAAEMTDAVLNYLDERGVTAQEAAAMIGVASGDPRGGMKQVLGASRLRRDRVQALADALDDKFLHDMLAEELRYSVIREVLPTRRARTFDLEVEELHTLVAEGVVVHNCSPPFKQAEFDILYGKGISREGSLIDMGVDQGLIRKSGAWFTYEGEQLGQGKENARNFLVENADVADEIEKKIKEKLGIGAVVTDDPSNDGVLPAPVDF

[14] = Fluorescence-based cell-based high throughput dose response assay for inhibitors of the interaction of nucleotide-binding oligomerization domain containing 2 (NOD2) and the receptor-interacting serine-threonine kinase 2 (RIPK2).; type: functional; details: Homo sapiens
[15] = NIH-3T3 fibroblast cytotoxicity, dose response, cytotoxicity control, cell-based, fluorescence, Alamar Blue, secondary assay (AID 2327); type: functional;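 note: NIH-3T3 mouse fibroblasts cultured with fluconazole at 8 µg/mL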
[16] = fluconazole-exposed Candida albicans growth modulators – fluorescence, retest, confirmation (AID 2467); type: functional, cell-based
[17] = Trypanosoma cruzi growth suppression in host cells – NIH3T3 host cells, beta-gal luminescence, confirmation (AID 2044); type: functional, cell-based;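 note: intracellular parasites grown in NIH/3T3 mouse fibroblasts as host cells; luminescent beta-galactosidase reporter signal from transgenic T. cruzi replicating inside host cells; inhibitors lower the luminescence signal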
[18] = molecular target: T4, Serine/threonine-protein phosphatase (Candida dubliniensis (strain CD36 / CBS 7987 / NCPF 3949 / NRRLY-17841) (Yeast), UniProt B9W6M3); experiment: blockers of CaCl2-induced CDRE-lacZ signaling – S. cerevisiae, luminescence, secondary, dose response (AID 2388); type: functional, cell-based;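 note: yeast reporter cells carrying a calcineurin-responsive lacZ construct stimulated with calcium chloride; luminescent beta-galactosidase reporter signal in whole cells rather than isolated phosphatase activity; potency for inhibition where a drop in reporter signal means calcineurin blockade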
T4 sequence (B9W6M3 whole entry): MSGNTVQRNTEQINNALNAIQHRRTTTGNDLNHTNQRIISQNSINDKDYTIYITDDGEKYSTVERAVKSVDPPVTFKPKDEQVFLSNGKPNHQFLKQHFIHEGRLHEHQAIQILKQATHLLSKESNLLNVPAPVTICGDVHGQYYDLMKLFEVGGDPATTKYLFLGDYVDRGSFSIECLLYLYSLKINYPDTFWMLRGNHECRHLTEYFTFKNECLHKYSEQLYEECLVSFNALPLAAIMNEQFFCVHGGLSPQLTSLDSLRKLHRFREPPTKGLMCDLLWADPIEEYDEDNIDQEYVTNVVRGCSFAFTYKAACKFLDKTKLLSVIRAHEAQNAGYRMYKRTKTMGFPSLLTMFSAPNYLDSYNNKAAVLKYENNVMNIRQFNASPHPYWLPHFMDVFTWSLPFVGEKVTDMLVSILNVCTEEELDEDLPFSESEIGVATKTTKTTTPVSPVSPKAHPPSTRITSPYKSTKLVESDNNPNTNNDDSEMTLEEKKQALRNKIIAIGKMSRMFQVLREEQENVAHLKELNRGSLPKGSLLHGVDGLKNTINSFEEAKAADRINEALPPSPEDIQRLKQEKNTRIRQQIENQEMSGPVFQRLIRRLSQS

[19] = NIH3T3 cell viability loss – ATP luminescence, mouse fibroblasts, counter-screen, dose response (AID 2010); type: functional, cell-based;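 note: cells exposed to compound for about 90 hours before reading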
Beta-galactosidase = Beta-galactosidase (Escherichia coli, UniProt Q8VNN2); experiment: detection-enzyme interference by beta-gal modulators – biochemical, E. coli enzyme, set 3, artefact control for CCR6 antagonist project, dose response (AID 504712); type: functional
[20] = molecular target: ATP-dependent molecular chaperone HSP82 (Candida albicans (strain WO-1) (Yeast), UniProt C4YTQ8); experiment: steroid-induced GRE reporter decrease in yeast – S. cerevisiae, luminescence, Hsp90 inhibitor project, dose response (AID 2400); type: functional, cell-based;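 note: beta-galactosidase luminescence from glucocorticoid response element reporter as proxy for Hsp90 function; inhibitor potency where signal loss means Hsp90 inhibition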
[21] = molecular target: Nuclear receptor subfamily 5 group A member 2 (Homo sapiens, UniProt O00482); type: functional, cell-based;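 note: HEK293T cells transfected with LRH-1 and a StAR promoter luciferase reporter; potency for inhibitors that lower LRH-1 driven reporter light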
Steroidogenic factor 1 = Steroidogenic factor 1 (Homo sapiens, UniProt Q13285); experiment: Counterscreen for inverse agonists of the liver receptor homolog-1 (LRH-1; NR5A2): Luminescence-based cell-based high throughput dose response assay to identify inverse agonists of the Steroidogenic Factor 1 Nuclear Receptor (SF1; NR5A1).; type: functional
[22] = nonselective StAR promoter luciferase inhibitors – cell-based, luminescence, luciferase reporter, counter-screen for LRH-1 inverse agonist project, dose response (AID 651969); type: functional
[23] = molecular target: Adenosylmethionine-8-amino-7-oxononanoate aminotransferase (Mycobacterium tuberculosis, UniProt P9WQ81); experiment: Mycobacterium tuberculosis BioA enzyme inhibitor Measured in Biochemical System Using Plate Reader - 2163-02_Inhibitor_Dose_CherryPick_Activity.; type: functional, Mycobacterium tuberculosis UT205
[24] = molecular target: T5, Low molecular weight phosphotyrosine protein phosphatase (Homo sapiens, UniProt P24666); type: functional; details: read-out: IC50_Mean
T5 sequence (P24666 whole entry): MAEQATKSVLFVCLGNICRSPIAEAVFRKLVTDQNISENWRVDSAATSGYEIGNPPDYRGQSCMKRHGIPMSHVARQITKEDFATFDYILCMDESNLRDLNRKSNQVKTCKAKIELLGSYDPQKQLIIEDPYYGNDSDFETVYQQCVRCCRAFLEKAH

[25] = molecular target: T5, Low molecular weight phosphotyrosine protein phosphatase; type: functional; details: read-out: IC50_Mean; remark: listed apart in the source

Sequence of Paired box protein Pax-8 (Q06710 whole entry): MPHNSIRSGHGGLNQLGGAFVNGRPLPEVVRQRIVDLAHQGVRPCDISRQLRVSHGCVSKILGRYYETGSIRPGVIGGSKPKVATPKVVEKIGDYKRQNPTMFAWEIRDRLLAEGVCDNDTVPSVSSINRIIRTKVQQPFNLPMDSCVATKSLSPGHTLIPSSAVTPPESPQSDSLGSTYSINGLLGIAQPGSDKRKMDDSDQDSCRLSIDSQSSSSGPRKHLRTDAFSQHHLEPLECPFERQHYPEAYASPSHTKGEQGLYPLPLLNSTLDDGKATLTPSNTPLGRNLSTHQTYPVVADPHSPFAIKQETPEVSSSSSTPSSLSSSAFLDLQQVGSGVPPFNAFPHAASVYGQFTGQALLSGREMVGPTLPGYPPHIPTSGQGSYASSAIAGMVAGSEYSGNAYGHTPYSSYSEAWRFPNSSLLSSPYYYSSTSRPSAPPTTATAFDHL
Sequence of Beta-galactosidase (Q8VNN2 whole entry): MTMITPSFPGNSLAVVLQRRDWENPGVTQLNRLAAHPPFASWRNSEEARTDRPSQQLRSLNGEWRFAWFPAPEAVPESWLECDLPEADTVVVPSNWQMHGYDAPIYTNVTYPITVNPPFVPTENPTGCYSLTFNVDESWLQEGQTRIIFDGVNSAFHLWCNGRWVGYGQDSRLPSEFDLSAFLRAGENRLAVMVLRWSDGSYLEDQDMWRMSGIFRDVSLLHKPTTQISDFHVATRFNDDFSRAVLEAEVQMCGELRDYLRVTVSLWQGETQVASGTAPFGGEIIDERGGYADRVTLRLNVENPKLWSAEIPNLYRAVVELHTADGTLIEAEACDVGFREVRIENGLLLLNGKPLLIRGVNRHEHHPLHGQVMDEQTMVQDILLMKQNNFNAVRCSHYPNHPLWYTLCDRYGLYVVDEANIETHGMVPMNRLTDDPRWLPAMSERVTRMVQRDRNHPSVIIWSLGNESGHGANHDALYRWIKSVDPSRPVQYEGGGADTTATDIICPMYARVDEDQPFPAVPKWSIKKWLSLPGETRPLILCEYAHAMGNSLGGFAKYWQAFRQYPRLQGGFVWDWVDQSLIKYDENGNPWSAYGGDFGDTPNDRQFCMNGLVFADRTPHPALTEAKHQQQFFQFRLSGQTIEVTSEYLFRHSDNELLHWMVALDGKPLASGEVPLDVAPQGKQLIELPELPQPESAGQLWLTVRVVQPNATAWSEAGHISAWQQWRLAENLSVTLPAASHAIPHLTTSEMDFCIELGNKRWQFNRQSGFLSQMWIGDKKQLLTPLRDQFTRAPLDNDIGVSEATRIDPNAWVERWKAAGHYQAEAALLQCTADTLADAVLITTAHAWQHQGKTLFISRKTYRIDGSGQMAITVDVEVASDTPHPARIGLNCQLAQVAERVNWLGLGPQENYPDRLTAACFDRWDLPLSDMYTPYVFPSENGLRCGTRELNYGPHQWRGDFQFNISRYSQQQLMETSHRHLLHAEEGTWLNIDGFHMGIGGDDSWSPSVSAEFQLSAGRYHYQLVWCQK
Sequence of ATP-dependent molecular chaperone HSP82 (C4YTQ8 whole entry): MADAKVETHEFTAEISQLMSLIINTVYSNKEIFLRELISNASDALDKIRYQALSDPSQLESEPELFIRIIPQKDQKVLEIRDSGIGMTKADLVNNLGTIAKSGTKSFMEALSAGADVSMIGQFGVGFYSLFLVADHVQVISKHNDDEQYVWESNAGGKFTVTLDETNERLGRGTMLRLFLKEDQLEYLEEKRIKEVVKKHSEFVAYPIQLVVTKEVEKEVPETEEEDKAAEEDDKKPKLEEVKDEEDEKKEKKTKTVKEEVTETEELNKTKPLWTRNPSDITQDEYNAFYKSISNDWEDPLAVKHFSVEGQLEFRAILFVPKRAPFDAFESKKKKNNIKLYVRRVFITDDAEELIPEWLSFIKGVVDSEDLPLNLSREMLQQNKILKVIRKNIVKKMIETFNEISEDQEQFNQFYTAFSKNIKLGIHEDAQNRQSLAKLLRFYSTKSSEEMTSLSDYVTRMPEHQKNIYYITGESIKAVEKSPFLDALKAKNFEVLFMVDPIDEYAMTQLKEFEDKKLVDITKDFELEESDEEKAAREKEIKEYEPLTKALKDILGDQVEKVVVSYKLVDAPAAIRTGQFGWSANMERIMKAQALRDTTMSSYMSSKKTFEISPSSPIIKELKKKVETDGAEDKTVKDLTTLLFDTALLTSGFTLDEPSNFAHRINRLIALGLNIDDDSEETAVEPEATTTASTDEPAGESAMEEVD
Sequence of Steroidogenic factor 1 (Q13285 whole entry): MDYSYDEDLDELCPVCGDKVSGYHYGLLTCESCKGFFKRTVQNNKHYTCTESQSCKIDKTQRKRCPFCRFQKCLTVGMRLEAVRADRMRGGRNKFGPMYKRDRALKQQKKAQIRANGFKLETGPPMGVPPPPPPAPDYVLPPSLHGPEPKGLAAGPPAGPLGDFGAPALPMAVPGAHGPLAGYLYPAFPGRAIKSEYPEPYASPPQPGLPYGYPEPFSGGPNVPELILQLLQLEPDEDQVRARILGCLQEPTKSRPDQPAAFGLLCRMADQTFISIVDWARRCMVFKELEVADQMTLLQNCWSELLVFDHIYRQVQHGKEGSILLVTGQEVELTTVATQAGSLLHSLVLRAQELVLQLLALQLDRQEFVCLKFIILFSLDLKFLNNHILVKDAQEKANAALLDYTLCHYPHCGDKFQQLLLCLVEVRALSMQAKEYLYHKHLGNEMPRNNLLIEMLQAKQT
Sequence of Adenosylmethionine-8-amino-7-oxononanoate aminotransferase (P9WQ81 whole entry): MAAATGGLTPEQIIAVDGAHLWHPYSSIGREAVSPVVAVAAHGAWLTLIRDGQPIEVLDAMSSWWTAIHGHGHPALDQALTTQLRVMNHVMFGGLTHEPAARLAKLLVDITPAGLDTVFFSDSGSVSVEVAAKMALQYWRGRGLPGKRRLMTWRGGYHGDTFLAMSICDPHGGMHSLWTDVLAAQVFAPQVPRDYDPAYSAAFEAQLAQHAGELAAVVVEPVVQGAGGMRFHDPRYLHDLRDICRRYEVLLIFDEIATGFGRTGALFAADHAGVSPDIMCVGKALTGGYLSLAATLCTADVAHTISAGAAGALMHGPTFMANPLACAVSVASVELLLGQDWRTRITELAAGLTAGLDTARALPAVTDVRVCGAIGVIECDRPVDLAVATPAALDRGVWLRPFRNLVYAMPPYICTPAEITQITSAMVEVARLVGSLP
Sequence of Nuclear receptor subfamily 5 group A member 2 (O00482 whole entry): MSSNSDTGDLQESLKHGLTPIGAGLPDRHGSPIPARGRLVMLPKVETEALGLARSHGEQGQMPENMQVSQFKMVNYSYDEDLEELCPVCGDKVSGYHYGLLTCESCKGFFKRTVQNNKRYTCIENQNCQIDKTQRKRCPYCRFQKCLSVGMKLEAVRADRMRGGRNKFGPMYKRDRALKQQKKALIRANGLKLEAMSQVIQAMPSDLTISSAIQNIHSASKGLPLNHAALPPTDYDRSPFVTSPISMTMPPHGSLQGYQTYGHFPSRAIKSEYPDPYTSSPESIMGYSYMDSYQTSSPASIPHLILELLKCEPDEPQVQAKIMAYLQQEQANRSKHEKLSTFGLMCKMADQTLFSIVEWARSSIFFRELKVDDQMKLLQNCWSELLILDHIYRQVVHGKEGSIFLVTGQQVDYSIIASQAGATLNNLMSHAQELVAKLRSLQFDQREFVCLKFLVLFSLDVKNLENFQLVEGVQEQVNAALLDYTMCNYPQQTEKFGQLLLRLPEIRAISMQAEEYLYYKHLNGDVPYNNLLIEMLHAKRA
Sequence of Melanocortin receptor 4 (P32245 whole entry): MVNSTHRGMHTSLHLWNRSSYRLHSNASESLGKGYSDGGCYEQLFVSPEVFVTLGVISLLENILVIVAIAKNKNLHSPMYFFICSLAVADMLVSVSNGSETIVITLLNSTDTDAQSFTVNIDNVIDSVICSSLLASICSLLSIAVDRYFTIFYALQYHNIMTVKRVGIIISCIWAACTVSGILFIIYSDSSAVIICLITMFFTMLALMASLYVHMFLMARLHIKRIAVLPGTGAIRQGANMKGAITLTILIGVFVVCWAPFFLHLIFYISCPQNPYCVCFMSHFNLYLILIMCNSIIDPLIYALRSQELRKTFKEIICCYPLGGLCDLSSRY

## C=C1CCc2c([nH]c3ccc(OCC(C)C)cc23)C1=O
[1]
  AC50: 2.08 µM (active)
INS1
  AC50: 3.69 µM (active)
Melanocortin receptor 4
  IC50: 6.05 µM (active)
[2]
  IC50: > 64.6 µM (inactive)
Paired box protein Pax-8
  AC50: 6.14 µM (active)
[3]
  AC50: 35.6 µM (active)

## CCN(CC)c1ccc(/C=N/NC(=O)c2cnccn2)c(O)c1
BJ [4]
  EC50: 5.61 µM (active)
Cells [5]
  EC50: 8.38 µM (active)
BJ [6]
  EC50: 5.54 µM (active)
Cells [7]
  EC50: 40 µM (active)
[8]
  EC50: 2.17 µM (active)
HEK293
  AC50: 5.61 µM (active)
[9]
  AC50: 13.2 µM (active)
INS1
  AC50: 0.55 µM (active)

## O=[N+]([O-])c1cc(Br)c(Nc2ccccc2)c([N+](=O)[O-])c1
BJ [4]
  EC50: 5.53 µM (inconclusive)
BJ [6]
  EC50: 2.57 µM (inconclusive)
BJ [10]
  EC50: 28.3 µM (inconclusive)
[8]
  EC50: 4.5 µM (active)
[11]
  AC50: 5.68 µM (active)
[12]
  AC50: 7.5 µM (active)
BJ [13]
  EC50: 1.37 µM (active)
Protein RecA
  EC50: 5.15 µM (active)
[14]
  IC50: 2.12 µM (active)

## CC(=O)NC(c1ccc(C)cc1)c1cc([N+](=O)[O-])c2cccnc2c1O (stereo unspecified)
[15]
  EC50: 47.2 µM (active)
[16]
  EC50: 0.334 µM (active)
[17]
  EC50: 1.16 µM (active)
[18]
  EC50: > 180 µM (inactive)
[19]
  EC50: < 6 µM (inconclusive)
Beta-galactosidase
  IC50: > 66.6 µM (inactive)
[20]
  EC50: 40.3 µM (active)

## Cc1ccc2cccc(OCC(=O)NCCC3=CCCCC3)c2n1
[21]
  IC50: 4.06 µM (active)
Steroidogenic factor 1
  IC50: 2.83 µM (active)
[22]
  IC50: 35.8 µM (inactive)

## O=C(Nc1ccc2c(c1)[C@H]1C[C@@H](CC(=O)N3CCc4ccccc4C3)O[C@@H](CO)[C@H]1O2)c1cccnc1
[23]
  AC50: 10.5 µM (active)

## COCCNc1nc(NCc2cc(-c3ccc(OC)cc3)no2)c2sccc2n1
[24]
  IC50: 9.53 µM (active)
[25]
  IC50: 23.3 µM (inactive)

Reference: ChEMBL document CHEMBL1201862, “PubChem BioAssay data set” (2004)
